In US20240059691A1 (KALVISTA PHARMACEUTICALS LIMITED, priority 2020, published 2024):

Legend:
[1] = target: KLK1 (Homo sapiens (Human), UniProt P06870); assay: Determination of related protease inhibition: KLK1 (fluorogenic substrate at Km); type: biochemical; conditions: 25° C.
In short: (§1)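 Human enzymes incubated with varied inhibitor concentrations and fluorogenic substrate at Km. Fluorescence release followed over 5 min at 25 °C; linear rate expressed as % activity, IC50 as inhibitor concentration giving 50% inhibition of uninhibited enzyme.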

[2] = target: FXa (Homo sapiens (Human), UniProt P00742); assay: Determination of related protease inhibition: FXa (fluorogenic substrate at Km); type: biochemical; conditions: 25° C.
Sequence of FXa (P00742 235-488): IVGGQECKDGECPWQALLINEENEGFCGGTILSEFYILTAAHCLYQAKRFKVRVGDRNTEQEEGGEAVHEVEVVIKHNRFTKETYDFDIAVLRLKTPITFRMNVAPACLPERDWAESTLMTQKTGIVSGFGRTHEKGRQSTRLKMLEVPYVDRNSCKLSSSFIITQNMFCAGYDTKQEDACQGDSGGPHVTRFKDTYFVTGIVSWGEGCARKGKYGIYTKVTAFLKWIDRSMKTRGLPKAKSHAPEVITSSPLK
Sequence of FXa (P00742 41-179 partner): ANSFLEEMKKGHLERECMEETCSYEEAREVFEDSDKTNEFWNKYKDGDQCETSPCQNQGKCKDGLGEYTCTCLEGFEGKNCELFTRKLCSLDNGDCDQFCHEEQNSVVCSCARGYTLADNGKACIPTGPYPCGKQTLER
In short: as §1

[3] = target: Thrombin (Homo sapiens (Human), UniProt P00734); assay: Determination of related protease inhibition: Thrombin (fluorogenic substrate at Km); type: biochemical; conditions: 25° C.
In short: as §1

[4] = target: FXIa (Homo sapiens (Human), UniProt P03951); assay: Determination of related protease inhibition: FXIa (fixed substrate concentration of 100 μM); type: biochemical; conditions: 25° C.
Sequence of FXIa (P03951 388-625): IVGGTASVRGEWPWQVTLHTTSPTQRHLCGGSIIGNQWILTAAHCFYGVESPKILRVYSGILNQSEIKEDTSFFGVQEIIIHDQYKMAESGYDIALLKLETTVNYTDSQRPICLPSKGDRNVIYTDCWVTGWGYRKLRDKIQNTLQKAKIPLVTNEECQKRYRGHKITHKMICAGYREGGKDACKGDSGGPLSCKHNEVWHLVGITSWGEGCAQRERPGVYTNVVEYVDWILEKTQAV
Sequence of FXIa (P03951 19-387 partner): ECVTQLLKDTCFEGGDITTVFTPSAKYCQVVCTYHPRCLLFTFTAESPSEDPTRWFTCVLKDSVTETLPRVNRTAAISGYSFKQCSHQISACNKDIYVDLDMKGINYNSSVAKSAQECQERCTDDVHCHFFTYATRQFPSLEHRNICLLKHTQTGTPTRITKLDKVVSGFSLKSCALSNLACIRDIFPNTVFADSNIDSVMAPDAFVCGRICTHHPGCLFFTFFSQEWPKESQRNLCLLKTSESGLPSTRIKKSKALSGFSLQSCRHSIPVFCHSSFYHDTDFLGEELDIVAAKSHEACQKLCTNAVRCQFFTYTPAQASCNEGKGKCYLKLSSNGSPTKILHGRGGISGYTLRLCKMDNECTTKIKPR

[5] = target: Human Factor XIIa (Homo sapiens (Human), UniProt P00748); assay: Determination of FXIIa inhibition (fluorogenic substrate H-DPro-Phe-Arg-AFC, IC50 assay); type: biochemical; conditions: substrate H-DPro-Phe-Arg-AFC at Km, 25° C.; class scale A-G
Sequence of Human Factor XIIa (P00748 373-615): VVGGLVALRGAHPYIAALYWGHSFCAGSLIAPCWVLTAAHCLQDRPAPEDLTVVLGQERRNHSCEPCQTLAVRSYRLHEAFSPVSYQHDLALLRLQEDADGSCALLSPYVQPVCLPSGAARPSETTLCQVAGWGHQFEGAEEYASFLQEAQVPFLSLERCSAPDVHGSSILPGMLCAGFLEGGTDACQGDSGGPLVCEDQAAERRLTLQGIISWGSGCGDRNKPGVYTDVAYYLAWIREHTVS
In short: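 Human FXIIa incubated at 25° C with fluorogenic substrate H-DPro-Phe-Arg-AFC at its Km concentration and varying compound concentrations. Fluorescence release monitored over 5 min at 25° C; linear rate expressed as % of uninhibited activity to derive IC50.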

[6] = target: Trypsin; assay: Determination of related protease inhibition: Trypsin (fluorogenic substrate at Km); type: biochemical, human; conditions: 25° C.
Procedure: (§2) Determination of Related Protease Inhibition
(§3) In vitro inhibition of related proteases was determined using an ([…] assay based on standard literature methods (see e.g. Shori et al., Biochem. Pharmacol., 1992, 43, 1209; Bouckaert et al., European Journal of Medicinal Chemistry 110 (2016) 181). Human serine protease enzymes Plasma Kallikrein, KLK1, FXa, Plasmin, Thrombin and Trypsin were assayed for enzymatic activity using an appropriate fluorogenic substrate at Km concentration, FXIa at fixed substrate concentration of 100 μM, and various concentrations of the test compound. Protease activity was measured by monitoring the accumulation of liberated fluorescence from the substrate over […]. The linear rate of fluorescence increase per minute was expressed as percentage (%) activity. IC50 values were calculated as the concentration of inhibitor giving 50% inhibition of the uninhibited enzyme activity (100%).

[7] = target: Plasma Kallikrein (Homo sapiens (Human), UniProt P03952); assay: Determination of related protease inhibition: Plasma Kallikrein (fluorogenic substrate at Km); type: biochemical; conditions: 25° C., read-out: IC50 (human PKal)
Sequence of Plasma Kallikrein (P03952 391-638): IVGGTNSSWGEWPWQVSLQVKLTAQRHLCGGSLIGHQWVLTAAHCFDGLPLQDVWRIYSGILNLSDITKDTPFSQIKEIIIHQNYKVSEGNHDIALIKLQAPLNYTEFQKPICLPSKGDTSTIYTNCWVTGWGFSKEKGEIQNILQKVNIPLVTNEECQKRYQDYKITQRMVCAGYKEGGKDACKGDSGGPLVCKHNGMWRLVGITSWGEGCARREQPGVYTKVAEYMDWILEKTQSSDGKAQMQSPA
Sequence of Plasma Kallikrein (P03952 20-390 partner): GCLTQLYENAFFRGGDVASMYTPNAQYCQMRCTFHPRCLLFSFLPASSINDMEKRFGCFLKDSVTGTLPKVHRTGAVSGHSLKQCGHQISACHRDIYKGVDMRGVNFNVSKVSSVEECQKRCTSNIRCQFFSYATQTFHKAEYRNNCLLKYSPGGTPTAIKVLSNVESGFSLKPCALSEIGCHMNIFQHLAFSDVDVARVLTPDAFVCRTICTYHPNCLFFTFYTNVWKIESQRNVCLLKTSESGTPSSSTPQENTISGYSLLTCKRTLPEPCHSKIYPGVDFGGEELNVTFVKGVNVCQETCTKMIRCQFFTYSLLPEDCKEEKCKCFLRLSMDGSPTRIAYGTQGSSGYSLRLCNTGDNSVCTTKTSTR
In short: as §1

[8] = target: Plasmin (Homo sapiens (Human), UniProt P00747); assay: Determination of related protease inhibition: Plasmin (fluorogenic substrate at Km); type: biochemical; conditions: 25° C.
Sequence of Plasmin (P00747 581-810): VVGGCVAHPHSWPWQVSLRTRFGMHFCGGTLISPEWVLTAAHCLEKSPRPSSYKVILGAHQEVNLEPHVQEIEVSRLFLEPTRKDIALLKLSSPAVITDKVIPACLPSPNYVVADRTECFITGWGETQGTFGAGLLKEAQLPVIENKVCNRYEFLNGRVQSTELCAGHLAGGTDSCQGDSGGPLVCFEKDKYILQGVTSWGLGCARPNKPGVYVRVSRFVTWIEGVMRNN
Sequence of Plasmin (P00747 97-580 partner): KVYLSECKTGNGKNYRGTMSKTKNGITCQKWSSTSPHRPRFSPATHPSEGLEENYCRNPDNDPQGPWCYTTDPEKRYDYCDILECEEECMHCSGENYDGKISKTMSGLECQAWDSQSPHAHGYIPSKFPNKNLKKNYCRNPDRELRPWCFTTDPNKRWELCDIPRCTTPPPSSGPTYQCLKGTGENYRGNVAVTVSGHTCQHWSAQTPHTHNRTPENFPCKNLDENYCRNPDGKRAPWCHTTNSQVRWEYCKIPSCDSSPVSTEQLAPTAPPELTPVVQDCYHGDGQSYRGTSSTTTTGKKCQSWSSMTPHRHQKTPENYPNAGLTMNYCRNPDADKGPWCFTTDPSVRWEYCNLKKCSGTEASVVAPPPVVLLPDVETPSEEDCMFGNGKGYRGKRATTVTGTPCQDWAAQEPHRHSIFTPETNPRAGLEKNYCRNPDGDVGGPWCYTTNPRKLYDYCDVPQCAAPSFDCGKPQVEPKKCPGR
Procedure: as §2, §3

[9] = Pharmacokinetics following a single intravenous dose and a single oral dose in male Sprague-Dawley rats (oral bioavailability, half-life); type: in vivo; conditions: rat, plasma, 10% DMSO/10% Cremophor EL/80% SWFI; for bioavailability: read-out: F % (oral bioavailability)
Procedure: Pharmacokinetic studies of the compounds in Table 16 were performed to assess the pharmacokinetics following a single intravenous dose and a single oral dose in male Sprague-Dawley rats. Two rats were given a single intravenous dose of 1 mL/kg of a nominal 1 mg/mL (1 mg/kg) composition of test compound in 10% DMSO/10% Cremophor EL/80% SWFI vehicle. Example 2191 was dosed at 1 mL/kg of a nominal 2 mg/mL (2 mg/kg) using the same vehicle.
Two rats were given a single oral dose of 5 mL/kg of a nominal 1 mg/mL (5 mg/kg) composition of test compound in 10% DMSO/10% Cremophor EL/80% SWFI vehicle. Example 2191 was dosed at 5 mL/kg of a nominal 2 mg/mL (10 mg/kg) using the same vehicle.
Following intravenous dosing, blood samples were collected over a period of 12 h. Sample times were 2, 5, 15 and 30 min then 1, 2, 4, 6, and 12 h. Following oral dosing, blood samples were collected over a period of 24 h. Sample times were 5, 15 and 30 min then 1, 2, 4, 6, 8, 12 and 24 h.
Following collection, blood samples were centrifuged and the plasma fraction analysed for concentration of test compound by LCMS. Oral bioavailability and half-life calculations from these studies were obtained using Phoenix WinNonlin (v8.0) and are shown below: […]

Sequence of KLK1 (P06870 25-262): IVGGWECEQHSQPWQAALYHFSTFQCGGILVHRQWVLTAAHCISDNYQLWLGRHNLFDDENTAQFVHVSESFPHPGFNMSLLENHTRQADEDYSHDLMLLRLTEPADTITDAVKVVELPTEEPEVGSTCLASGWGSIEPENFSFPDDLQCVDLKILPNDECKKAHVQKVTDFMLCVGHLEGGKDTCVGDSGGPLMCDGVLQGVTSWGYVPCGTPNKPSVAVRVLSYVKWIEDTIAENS

Row | SMILES | IC50 [1] | IC50 [2] | IC50 [3] | IC50 [4] | IC50 [5] | IC50 [6] | IC50 [7] | IC50 [8] | half-life [9] | bioavailability [9]
1 | CN1CCC(COc2cc(CNc3ccc4cnccc4c3)ccn2)CC1 [Example 4262, N-({2-[(1-methylpiperidin-4-yl)methoxy]pyridin-4-yl}methyl)isoquinolin-6-amine] | 10 to 40 µM | 10 to 40 µM | > 40 µM | > 40 µM | 3000 to 10000 nM | > 40 µM | 10 to 40 µM | > 40 µM |  | 
2 | CC(C)N1C[C@@H]2C[C@H]1CN2CCc1ccc(CNc2cccc3c(N)nccc23)c(F)c1 (stereo in doubt) [Example 2212, N5-[[2-fluoro-4-[2-[(1S,4S)-5-isopropyl-2,5-diazabicyclo[2.2.1]heptan-2-yl]ethyl]phenyl]methyl]isoquinoline-1,5-diamine] | 10 to 40 µM | > 40 µM | > 40 µM | > 40 µM | 100 to 300 nM | > 40 µM | 3 to 10 µM | > 40 µM | 260 min | 6.8%
3 | CN1CCC(CNc2ccc(CNc3ccnc4[nH]ccc34)cn2)CC1 [Example 1197, N-((6-(((1-methylpiperidin-4-yl)methyl)amino)pyridin-3-yl)methyl)-1H-pyrrolo[2,3-b]pyridin-4-amine] | > 40 µM | > 40 µM | > 40 µM | > 40 µM | 1000 to 3000 nM | > 40 µM | > 40 µM | > 40 µM |  | 
4 | Nc1ncc(F)c2c(NCc3ccnc(OCC4CCn5ccnc5C4)c3)cccc12 (centres unmarked) [Example 4308, 4-fluoro-5-N-[(2-{5H,6H,7H,8H-imidazo[1,2-a]pyridin-7-ylmethoxy}pyridin-4-yl)methyl]isoquinoline-1,5-diamine] | 10 to 40 µM | > 40 µM | > 40 µM | > 40 µM | 3000 to 10000 nM | > 40 µM | > 40 µM | > 40 µM |  | 

Continued, values first:

Row | IC50 [1] | IC50 [2] | IC50 [3] | IC50 [4] | IC50 [5] | IC50 [6] | IC50 [7] | IC50 [8] | half-life [9] | bioavailability [9] | SMILES
5 | 1 to 3 µM | 3 to 10 µM | > 40 µM | > 40 µM | 10 to 100 nM | > 40 µM | 10 to 40 µM | > 40 µM | 745 min | 3% | CN1CCC(COc2cc(CNc3ccc4c(N)ncc(Cl)c4c3)ccn2)CC1 [Example 4268, 4-Chloro-N6-((2-((1-methylpiperidin-4-yl)methoxy)pyridin-4-yl)methyl)isoquinoline-1,6-diamine]
6 | 3 to 10 µM | 3 to 10 µM | 10 to 40 µM | > 40 µM | 100 to 300 nM | > 40 µM | > 40 µM | > 40 µM |  |  | Nc1ncc(Cl)c2cc(NCc3ccnc(N4CCn5ccnc5C4)c3)ccc12 [Example 4437, 4-chloro-6-N-[(2-{5H,6H,8H-imidazo[1,2-a]pyrazin-7-yl}pyridin-4-yl)methyl]isoquinoline-1,6-diamine]
7 | 3 to 10 µM | 10 to 40 µM | 10 to 40 µM | > 40 µM | 100 to 300 nM | > 40 µM | 10 to 40 µM | > 40 µM |  |  | Nc1ncc(Cl)c2cc(NCc3ccnc(OCC4CCn5ccnc5C4)c3)ccc12 (single isomer, unassigned) [Example 4438, (S*)-4-chloro-N6-((2-((5,6,7,8-tetrahydroimidazo[1,2-a]pyridin-7-yl)methoxy)pyridin-4-yl)methyl)isoquinoline-1,6-diamine]
8 | 3 to 10 µM | > 40 µM | 10 to 40 µM | > 40 µM | 300 to 1000 nM | > 40 µM | > 40 µM | > 40 µM |  |  | Nc1nccc2c(NCc3ccc(N4CCn5ccnc5C4)nc3)cccc12 [Example 1128, 5-N-[(6-{5H,6H,8H-imidazo[1,2-a]piperazin-7-yl}pyridin-3-yl)methyl]isoquinoline-1,5-diamine]
